Laboratory results as given in PubChem BioAssay (NCI).
Values joined by “and” are separate entries in the source; they are usually repeats but may differ in a detail not shown here. Equal entries are not always repeated.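 Compound exposure: 48 hours, 5 concentrations, 96-well plates. GI50 is the concentration that inhibits growth by half. TGI denotes the concentration required for complete inhibition of growth.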

How the values were obtained:
Assay in all cases: NCI anticancer screen, dose series, 48 h; in the data active = GI50 below about 0.43 µM; inactive = the rest
786-0 renal = test system: 786-0 renal
A498 renal = test system: A498 renal
A549 NSCLC = test system: A549 NSCLC
ACHN renal = test system: ACHN renal
BT-549 breast = test system: BT-549 breast
CAKI-1 renal = test system: CAKI-1 renal
CCRF-CEM leukemia = test system: CCRF-CEM leukemia
COLO 205 colon = test system: COLO 205 colon
DLD-1 colon = test system: DLD-1 colon
DMS 114 small cell lung = test system: DMS 114 small cell lung
DMS 273 small cell lung = test system: DMS 273 small cell lung
DU-145 prostate = test system: DU-145 prostate
EKVX NSCLC = test system: EKVX NSCLC
HCC-2998 colon = test system: HCC-2998 colon
HCT-116 colon = test system: HCT-116 colon
HCT-15 colon = test system: HCT-15 colon
HOP-18 NSCLC = test system: HOP-18 NSCLC
HOP-62 NSCLC = test system: HOP-62 NSCLC
HOP-92 NSCLC = test system: HOP-92 NSCLC
HS 578T breast = test system: HS 578T breast
HT29 colon = test system: HT29 colon
IGROV1 ovarian = test system: IGROV1 ovarian
K-562 leukemia = test system: K-562 leukemia
KM12 colon = test system: KM12 colon
KM20L2 colon = test system: KM20L2 colon
LOX IMVI melanoma = test system: LOX IMVI melanoma
LXFL 529 NSCLC = test system: LXFL 529 NSCLC
M14 melanoma = test system: M14 melanoma
MALME-3M melanoma = test system: MALME-3M melanoma
MCF7 breast = test system: MCF7 breast
MDA-MB-231 breast = test system: MDA-MB-231 breast
MDA-N = test system: MDA-N
MOLT-4 leukemia = test system: MOLT-4 leukemia
NCI-H226 lung = test system: NCI-H226 lung
NCI-H23 lung = test system: NCI-H23 lung
NCI-H460 lung = test system: NCI-H460 lung
NCI/ADR-RES ovarian = test system: NCI/ADR-RES ovarian
OVCAR-3 ovarian = test system: OVCAR-3 ovarian
OVCAR-4 ovarian = test system: OVCAR-4 ovarian
OVCAR-5 ovarian = test system: OVCAR-5 ovarian
OVCAR-8 ovarian = test system: OVCAR-8 ovarian
PC-3 prostate = test system: PC-3 prostate
RPMI-8226 leukemia = test system: RPMI-8226 leukemia
RXF 393 renal = test system: RXF 393 renal
SF-268 CNS = test system: SF-268 CNS
SF-539 CNS = test system: SF-539 CNS
SK-MEL-2 melanoma = test system: SK-MEL-2 melanoma
SK-MEL-28 melanoma = test system: SK-MEL-28 melanoma
SK-MEL-5 melanoma = test system: SK-MEL-5 melanoma
SK-OV-3 ovarian = test system: SK-OV-3 ovarian
SN12C renal = test system: SN12C renal
SNB-19 CNS = test system: SNB-19 CNS
SNB-75 CNS = test system: SNB-75 CNS
SNB-78 CNS = test system: SNB-78 CNS
SR leukemia = test system: SR leukemia
SW-620 colon = test system: SW-620 colon
T-47D breast = test system: T-47D breast
TK-10 renal = test system: TK-10 renal
U251 CNS = test system: U251 CNS
UACC-257 melanoma = test system: UACC-257 melanoma
UACC-62 melanoma = test system: UACC-62 melanoma
UO-31 renal = test system: UO-31 renal
HL-60(TB) leukemia = test system: HL-60(TB) leukemia
M19-MEL melanoma = test system: M19-MEL melanoma
NCI-H522 lung = test system: NCI-H522 lung
SF-295 CNS = test system: SF-295 CNS

COc1ccc(NCc2cc(OC)c(OC)c(OC)c2)cc1
active: GI50 (K-562 leukemia) 0.0444 µM and 0.114 µM | GI50 (KM20L2 colon) 0.198 µM | GI50 (SK-MEL-2 melanoma) 0.328 µM | GI50 (SK-MEL-5 melanoma) 0.252 µM | GI50 (UACC-62 melanoma) 0.308 µM
> 100 µM and 19.4 µM: TGI (HOP-92 NSCLC)
> 47.8 µM: TGI (DU-145 prostate)
7.62 µM: TGI (RXF 393 renal)
2.55 µM: TGI (MDA-N)
> 100 µM and 12.9 µM: TGI (HT29 colon)
> 100 µM: TGI (786-0 renal) | TGI (A549 NSCLC) | TGI (ACHN renal) | TGI (BT-549 breast) | TGI (CAKI-1 renal) | TGI (CCRF-CEM leukemia) | TGI (DLD-1 colon) | TGI (DMS 273 small cell lung) | TGI (EKVX NSCLC) | TGI (HOP-18 NSCLC) | TGI (HS 578T breast) | TGI (IGROV1 ovarian) | TGI (K-562 leukemia) | TGI (LOX IMVI melanoma) | TGI (LXFL 529 NSCLC) | TGI (MALME-3M melanoma) | TGI (MCF7 breast) | TGI (MDA-MB-231 breast) | TGI (MOLT-4 leukemia) | TGI (OVCAR-4 ovarian) | TGI (OVCAR-5 ovarian) | TGI (OVCAR-8 ovarian) | TGI (PC-3 prostate) | TGI (RPMI-8226 leukemia) | TGI (SF-268 CNS) | TGI (SK-MEL-2 melanoma) | TGI (SK-MEL-28 melanoma) | TGI (SN12C renal) | TGI (SNB-19 CNS) | TGI (SNB-75 CNS) | TGI (SNB-78 CNS) | TGI (SW-620 colon) | TGI (T-47D breast) | TGI (TK-10 renal) | TGI (UACC-257 melanoma) | TGI (UACC-62 melanoma) | TGI (UO-31 renal)
> 100 µM and 15.4 µM: TGI (M14 melanoma)
inactive: GI50 (ACHN renal) 0.713 µM and 1.84 µM | GI50 (HOP-18 NSCLC) > 43.3 µM | GI50 (OVCAR-5 ovarian) > 91.7 µM and 20.2 µM | GI50 (UO-31 renal) 2.79 µM
> 70.6 µM and 17.3 µM: TGI (A498 renal)
> 32.7 µM and 37.1 µM: TGI (NCI-H460 lung)
> 32.7 µM and 31.3 µM: TGI (KM12 colon)
0.338 µM and 1.16 µM: GI50 (UACC-257 melanoma)
1.17 µM and 2.89 µM: TGI (OVCAR-3 ovarian)
> 100 µM and 22.5 µM: TGI (SK-OV-3 ovarian)
0.513 µM and 0.262 µM: GI50 (SNB-75 CNS)
0.833 µM and 0.654 µM: TGI (DMS 114 small cell lung)
32.7 µM and > 74.5 µM: TGI (SK-MEL-5 melanoma)
0.784 µM and 2.83 µM: TGI (COLO 205 colon)
> 74.1 µM: TGI (HOP-62 NSCLC)
> 17.1 µM: TGI (NCI/ADR-RES ovarian)
6.38 µM and 29.1 µM: TGI (NCI-H226 lung)
> 58.9 µM and 15.1 µM: TGI (U251 CNS)
0.404 µM and 1.04 µM: GI50 (CAKI-1 renal)
> 72 µM and 34.1 µM: TGI (HCT-116 colon)
0.281 µM and 0.855 µM: GI50 (CCRF-CEM leukemia)
2.73 µM and 3.31 µM: TGI (HCC-2998 colon)
2.22 µM and 0.929 µM: TGI (SF-539 CNS)
> 39.7 µM and 36.5 µM: TGI (HCT-15 colon)
> 29 µM: TGI (SR leukemia)
0.414 µM and 4.04 µM: GI50 (NCI-H226 lung)
31.4 µM: TGI (NCI-H23 lung)

O=c1[nH]cnc2c(COCCCO)c[nH]c12
> 100 µM: TGI (786-0 renal) | TGI (A549 NSCLC) | TGI (ACHN renal) | TGI (CAKI-1 renal) | TGI (CCRF-CEM leukemia) | TGI (COLO 205 colon) | TGI (DLD-1 colon) | TGI (DMS 114 small cell lung) | TGI (EKVX NSCLC) | TGI (HCT-116 colon) | TGI (HCT-15 colon) | TGI (HL-60(TB) leukemia) | TGI (HOP-18 NSCLC) | TGI (HOP-62 NSCLC) | TGI (HOP-92 NSCLC) | TGI (HT29 colon) | TGI (IGROV1 ovarian) | TGI (K-562 leukemia) | TGI (KM12 colon) | TGI (KM20L2 colon) | TGI (LOX IMVI melanoma) | TGI (LXFL 529 NSCLC) | TGI (M14 melanoma) | TGI (M19-MEL melanoma) | TGI (MALME-3M melanoma) | TGI (MOLT-4 leukemia) | TGI (NCI-H23 lung) | TGI (NCI-H522 lung) | TGI (OVCAR-3 ovarian) | TGI (OVCAR-5 ovarian) | TGI (OVCAR-8 ovarian) | TGI (RPMI-8226 leukemia) | TGI (RXF 393 renal) | TGI (SF-268 CNS) | TGI (SF-295 CNS) | TGI (SK-MEL-2 melanoma) | TGI (SK-MEL-28 melanoma) | TGI (SK-MEL-5 melanoma) | TGI (SK-OV-3 ovarian) | TGI (SN12C renal) | TGI (SNB-19 CNS) | TGI (SNB-75 CNS) | TGI (SNB-78 CNS) | TGI (SR leukemia) | TGI (SW-620 colon) | TGI (TK-10 renal) | TGI (U251 CNS) | TGI (UACC-257 melanoma) | TGI (UACC-62 melanoma) | TGI (UO-31 renal)

CCN=C1Nc2ccccc2-n2c(nn3nc4ccccc4c23)N1CC
> 100 µM: TGI (786-0 renal) | TGI (A498 renal) | TGI (A549 NSCLC) | TGI (ACHN renal) | TGI (CCRF-CEM leukemia) | TGI (COLO 205 colon) | TGI (DLD-1 colon) | TGI (DMS 114 small cell lung) | TGI (DMS 273 small cell lung) | TGI (EKVX NSCLC) | TGI (HCT-116 colon) | TGI (HCT-15 colon) | TGI (HL-60(TB) leukemia) | TGI (HOP-18 NSCLC) | TGI (HOP-62 NSCLC) | TGI (HOP-92 NSCLC) | TGI (HT29 colon) | TGI (IGROV1 ovarian) | TGI (K-562 leukemia) | TGI (KM12 colon) | TGI (KM20L2 colon) | TGI (LOX IMVI melanoma) | TGI (LXFL 529 NSCLC) | TGI (M14 melanoma) | TGI (M19-MEL melanoma) | TGI (MOLT-4 leukemia) | TGI (NCI-H226 lung) | TGI (NCI-H23 lung) | TGI (NCI-H460 lung) | TGI (NCI-H522 lung) | TGI (OVCAR-4 ovarian) | TGI (OVCAR-5 ovarian) | TGI (OVCAR-8 ovarian) | TGI (RPMI-8226 leukemia) | TGI (RXF 393 renal) | TGI (SF-268 CNS) | TGI (SF-295 CNS) | TGI (SF-539 CNS) | TGI (SK-MEL-28 melanoma) | TGI (SK-MEL-5 melanoma) | TGI (SN12C renal) | TGI (SNB-19 CNS) | TGI (SNB-75 CNS) | TGI (SR leukemia) | TGI (SW-620 colon) | TGI (U251 CNS) | TGI (UACC-257 melanoma) | TGI (UACC-62 melanoma)

COc1cc2cccc(N=Cc3ccccc3Cl)c2cc1OC
> 100 µM: TGI (786-0 renal) | TGI (A549 NSCLC) | TGI (ACHN renal) | TGI (CAKI-1 renal) | TGI (CCRF-CEM leukemia) | TGI (COLO 205 colon) | TGI (DLD-1 colon) | TGI (DMS 114 small cell lung) | TGI (EKVX NSCLC) | TGI (HCC-2998 colon) | TGI (HCT-116 colon) | TGI (HCT-15 colon) | TGI (HL-60(TB) leukemia) | TGI (HOP-18 NSCLC) | TGI (HOP-62 NSCLC) | TGI (HOP-92 NSCLC) | TGI (HT29 colon) | TGI (IGROV1 ovarian) | TGI (K-562 leukemia) | TGI (KM12 colon) | TGI (KM20L2 colon) | TGI (LOX IMVI melanoma) | TGI (LXFL 529 NSCLC) | TGI (M14 melanoma) | TGI (M19-MEL melanoma) | TGI (MALME-3M melanoma) | TGI (MOLT-4 leukemia) | TGI (NCI-H226 lung) | TGI (NCI-H23 lung) | TGI (NCI-H460 lung) | TGI (NCI-H522 lung) | TGI (OVCAR-3 ovarian) | TGI (OVCAR-4 ovarian) | TGI (OVCAR-5 ovarian) | TGI (OVCAR-8 ovarian) | TGI (RPMI-8226 leukemia) | TGI (RXF 393 renal) | TGI (SF-268 CNS) | TGI (SF-295 CNS) | TGI (SF-539 CNS) | TGI (SK-MEL-2 melanoma) | TGI (SK-MEL-28 melanoma) | TGI (SK-MEL-5 melanoma) | TGI (SK-OV-3 ovarian) | TGI (SN12C renal) | TGI (SNB-19 CNS) | TGI (SNB-75 CNS) | TGI (SNB-78 CNS) | TGI (SR leukemia) | TGI (SW-620 colon) | TGI (TK-10 renal) | TGI (U251 CNS) | TGI (UACC-257 melanoma) | TGI (UACC-62 melanoma) | TGI (UO-31 renal)
